pIC50: −log10 of the molar value. Calls of active or inactive are those of the source.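 How the source made its calls: active means IC50 under a set limit, which marks the compound as nonspecific in this counterscreen; inactive means the rest.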
Target: SaOS-2 dox-inducible full-length luciferase, luminescence counterscreen
Experiment: full-length luciferase signal inhibition, dose response, counter-screen for Mdm2/MdmX interaction inhibitor project, cell-based, SaOS-2, dox-inducible (AID 504609)

pIC50	IC50	Compound
5.05	–	CC1(C)C(=O)Nc2ccccc2N1C(=O)Cn1ncc(Cl)c(Cl)c1=O
4.94	–	C/C(=N\Nc1cc(C)nc(-c2ccccc2O)n1)c1ccccc1O
5.62	–	CCOC(=O)/C=C/C(=O)OCC(=O)NC(c1ccccc1)c1ccccc1
6.86	–	COCCn1c(C)cc(C2=NNC(=Nc3ccccc3F)SC2)c1C
4.90	–	CCOc1cc(N2CCOCC2)c(OCC)cc1NC(=O)COc1cccc2cccnc12
5.57	–	O=[N+]([O-])c1ccccc1S(=O)(=O)Nc1cccc2cccnc12
5.41	–	COc1cc(-c2nc(-c3ccc(NC(=O)c4ccc5c(c4)OCO5)cc3)no2)cc(OC)c1OC
5.29	–	CCN(CC)S(=O)(=O)c1ccc(NC(=O)c2cccnc2Cl)c(NC(=O)c2cccnc2Cl)c1
5.24	–	CC(=O)c1ccc(-c2ccc(C(=O)Nc3nc(-c4ccccn4)cs3)o2)cc1
5.76	–	COc1ccc2c(c1)C1(Nc3ccccc3-c3nc4ccccc4n31)C(=O)N2C (stereo not given)
5.62	–	O=c1oc2ccccc2cc1-c1cn(-c2ccccc2)c(=S)[nH]1
5.21	–	O=C(/C=C/c1c(F)cccc1Cl)c1ccc(O)cc1
4.81	–	COc1ccc(-c2cc3c(=O)n(CC(=O)NCCCN4CCC(N5CCCCC5)CC4)nc(C)n3n2)cc1
5.45	–	Cc1cccn2c(=O)c3cc(C(=O)NCCc4ccccc4)c(=N)n(Cc4ccco4)c3nc12
5.13	–	Cn1nc([N+](=O)[O-])nc1Sc1nnc(-c2ccccc2)o1
5.64	–	CC(C)c1cccc(O)c(=O)c1
5.80	–	O=C(CN1CCCc2ccccc21)N/N=C/c1c(O)ccc2ccccc12
5.12	–	CCN1C/C(=C/c2ccc(OC)c(O)c2)C(=O)/C(=C/c2ccc(OC)c(O)c2)C1
4.86	–	Cc1nc(NC2=NCN(CCCN3CCOCC3)CN2)nc2c(C)cccc12
–	> 79 µM (inactive)	CCOC(=O)c1ccc(Nc2nc(N)c3cc(OC)c(OC)cc3n2)cc1

— PubChem BioAssay AID504609 (Sanford-Burnham Center for Chemical Genomics, 2011)
